Patent US11124494B2, “Aryl heterocyclic piperidinone formyl peptide 2 receptor and formyl peptide 1 receptor agonists” (Bristol-Myers Squibb Company, priority 2017, dated 2021)
Read-outs that look alike come from different tables or passages of the source.

Key:
human FPR2 receptors = human FPR2 receptors (Homo sapiens (Human), UniProt P25090); assay: FPR2 cyclic adenosine monophosphate (cAMP) assay; type: cell-based; conditions: CHO cells overexpressing human FPR2
Method: (§1) FPR2 and FPR1 Cyclic Adenosine Monophosphate (cAMP) Assays. A mixture of forskolin (5 μM final for FPR2 or 10 μM final for FPR1) and IBMX (200 μM final) were added to 384-well Proxiplates (Perkin-Elmer) pre-dotted with test compounds in DMSO (1% final) at final concentrations in the range of 1.7 nM to 100 μM. Chinese Hamster Ovary cells (CHO) overexpressing human FPR1 or human FPR2 receptors were cultured in F-12 (Ham's) medium supplemented with 10% qualified FBS, 250 μg/ml zeocin and 300 μg/ml hygromycin (Life Technologies). Reactions were initiated by adding 2,000 human FPR2 cells per well or 4,000 human FPR1 cells per well in Dulbecco's PBS (with calcium and magnesium) (Life Technologies) supplemented with 0.1% BSA (Perkin-Elmer). The reaction mixtures were incubated for 30 min at room temperature. The level of intracellular cAMP was determined using the HTRF HiRange cAMP assay reagent kit (Cisbio) according to manufacturer's instruction. Solutions of cryptate conjugated anti-cAMP and d2 flurorophore-labelled cAMP were made in a supplied lysis buffer separately. Upon completion of the reaction, the cells were lysed with equal volume of the d2-cAMP solution and anti-cAMP solution. After a 1-h room temperature incubation, time-resolved fluorescence intensity was measured using the Envision (Perkin-Elmer) at 400 nm excitation and dual emission at 590 nm and 665 nm. A calibration curve was constructed with an external cAMP standard at concentrations ranging from 1 μM to 0.1 pM by plotting the fluorescent intensity ratio from 665 nm emission to the intensity from the 590 nm emission against cAMP concentrations. The potency and activity of a compound to inhibit cAMP production was then determined by fitting to a 4-parametric logistic equation from a plot of cAMP level versus compound concentrations.

human FPR1 receptors = human FPR1 receptors (Homo sapiens (Human), UniProt P21462); assay: FPR1 cyclic adenosine monophosphate (cAMP) assay; type: cell-based; conditions: CHO cells overexpressing human FPR1; forskolin 10 μM, IBMX 200 μM; inhibition of cAMP production; read-out: hFPR1 cAMP EC50
Chain of human FPR1 receptors (P21462 whole entry): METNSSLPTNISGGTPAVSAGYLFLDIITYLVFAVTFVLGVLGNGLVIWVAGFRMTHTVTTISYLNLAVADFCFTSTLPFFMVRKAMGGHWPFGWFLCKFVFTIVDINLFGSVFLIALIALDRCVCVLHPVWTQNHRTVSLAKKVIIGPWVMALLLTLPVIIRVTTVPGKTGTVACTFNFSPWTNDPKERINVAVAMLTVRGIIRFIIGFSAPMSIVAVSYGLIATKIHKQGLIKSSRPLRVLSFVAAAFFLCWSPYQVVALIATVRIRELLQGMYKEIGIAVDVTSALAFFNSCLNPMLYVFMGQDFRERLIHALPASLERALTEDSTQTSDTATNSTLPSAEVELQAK
Method: as §1

[1] = forskolin 5 μM, IBMX 200 μM, inhibition of cAMP production, read-out: hFPR2 cAMP2 EC50
[2] = hFPR2 Assay, potency bins, read-out: hFPR2 agonist activity EC50 values

Chain of human FPR2 receptors (P25090 whole entry): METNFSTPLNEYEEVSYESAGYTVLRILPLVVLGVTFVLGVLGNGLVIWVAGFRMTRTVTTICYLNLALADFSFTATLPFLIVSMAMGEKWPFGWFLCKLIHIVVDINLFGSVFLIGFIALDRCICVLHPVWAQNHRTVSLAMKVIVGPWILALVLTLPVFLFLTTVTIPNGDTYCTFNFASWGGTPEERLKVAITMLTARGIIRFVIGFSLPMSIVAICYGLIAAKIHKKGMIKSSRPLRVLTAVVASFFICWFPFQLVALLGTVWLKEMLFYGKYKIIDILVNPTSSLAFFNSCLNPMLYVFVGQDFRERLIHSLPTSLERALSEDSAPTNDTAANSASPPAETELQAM

## CS(=O)(=O)NCC1(c2ccc(N3CCC[C@@H](NC(=O)Nc4cnc(Cl)cn4)C3=O)cc2)CCC1 [Example 6]
Human FPR2 receptors; [1]
  EC50: 0.0007 µM
Human FPR1 receptors
  EC50: 0.1 µM

## CS(=O)(=O)NCC1(c2ccc(N3CCC[C@@H](NC(=O)Nc4ccc(C(F)(F)F)cc4)C3=O)cc2F)CC1 [Example 18]
Human FPR2 receptors; [1]
  EC50: 0.00017 µM
Human FPR1 receptors
  EC50: 0.002 µM

## CS(=O)(=O)NCC1(c2ccc(N3CCC[C@@H](NC(=O)Nc4cnc(Cl)cn4)C3=O)cc2)CC1 [Example 27]
Human FPR2 receptors; [1]
  EC50: 0.00091 µM
Human FPR1 receptors
  EC50: 0.13 µM

## CS(=O)(=O)NCC1(c2ccc(N3CCC[C@H](NC(=O)Nc4ncc(Cl)cc4F)C3=O)cc2)CC1 [Example 41]
Human FPR2 receptors; [1]
  EC50: 0.98 µM
Human FPR1 receptors
  EC50: 7.6 µM

## CS(=O)(=O)NCC1(c2ccc(N3CCC[C@@H](NC(=O)Nc4ccc(C(F)(F)F)cc4)C3=O)cc2)CC1 [Example 42]
Human FPR2 receptors; [1]
  EC50: 0.00021 µM
Human FPR1 receptors
  EC50: 0.033 µM

## O=C(Nc1ccc(C(F)(F)F)nc1)N[C@@H]1CCCN(c2ccc(C3(CN4CCOCC4)CCC3)cc2)C1=O [Example 52, (R)-1-(1-(4-(1-(Morpholinomethyl)cyclobutyl)phenyl)-2-oxopiperidin-3-yl)-3-(6-(trifluoromethyl)pyridin-3-yl)urea]
Human FPR2 receptors; [1]
  EC50: 0.017 µM
Human FPR1 receptors
  EC50: 0.56 µM

## O=C(Nc1ccc(Cl)cn1)N[C@@H]1CCCN(c2ccc(C3(CN4CCOCC4)CC3)cc2)C1=O [Example 53, (R)-1-(5-chloropyridin-2-yl)-3-(1-(4-(1-(morpholinomethyl)cyclopropyl)phenyl)-2-oxopiperidin-3-yl)urea]
Human FPR2 receptors; [1]
  EC50: 0.017 µM
Human FPR1 receptors
  EC50: 0.7 µM

## O=C(Nc1ccc(C(F)(F)F)nc1)N[C@H]1CCCN(c2ccc(C3(CN4CCCC4)CCC3)cc2)C1=O [Example 57, (S)-1-(2-oxo-1-(4-(1-(pyrrolidin-1-ylmethyl)cyclobutyl)phenyl)piperidin-3-yl)-3-(6-(trifluoromethyl)pyridin-3-yl)urea]
Human FPR2 receptors; [1]
  EC50: 0.96 µM
Human FPR1 receptors
  EC50: > 5000 µM

## O=C(Nc1ccc(C(F)(F)F)nc1)N[C@H]1CCCN(c2ccc(C3(CN4CCCC4)CCCC3)cc2)C1=O [Example 58, (S)-1-(2-oxo-1-(4-(1-(pyrrolidin-1-ylmethyl)cyclopentyl)phenyl)piperidin-3-yl)-3-(6-(trifluoromethyl)pyridin-3-yl)urea]
Human FPR2 receptors; [1]
  EC50: 1 µM
Human FPR1 receptors
  EC50: 3.4 µM

## O=C(Nc1ccc(C(F)(F)F)cn1)N[C@@H]1CCCN(c2ccc(C3(CN4CCCC4)CCC3)cc2)C1=O [Example 59, (R)-1-(2-oxo-1-(4-(1-(pyrrolidin-1-ylmethyl)cyclobutyl)phenyl)piperidin-3-yl)-3-(5-(trifluoromethyl)pyridin-2-yl)urea]
Human FPR2 receptors; [2]
  EC50: 0.1 to 1.25 µM

## O=C(Nc1ccc(C(F)(F)F)cn1)N[C@@H]1CCCN(c2ccc(C3(CN4CCCC4)CCCC3)cc2)C1=O [Example 60, (R)-1-(2-oxo-1-(4-(1-(pyrrolidin-1-ylmethyl)cyclopentyl)phenyl)piperidin-3-yl)-3-(5-(trifluoromethyl)pyridin-2-yl)urea]
Human FPR2 receptors; [2]
  EC50: 0.1 to 1.25 µM

## O=C(Nc1ccc(C(F)(F)F)nc1)N[C@@H]1CCCN(c2ccc(C3(CN4CCOCC4)CCCC3)cc2)C1=O [Example 61, (R)-1-(1-(4-(1-(morpholinomethyl)cyclopentyl)phenyl)-2-oxopiperidin-3-yl)-3-(6-(trifluoromethyl)pyridin-3-yl)urea]
Human FPR2 receptors; [2]
  EC50: 0.1 to 1.25 µM

## O=C(Nc1ccc(C(F)(F)F)nc1)N[C@H]1CCCN(c2ccc(C3(CN4CCOCC4)CCC3)cc2)C1=O [Example 62, (S)-1-(1-(4-(1-(morpholinomethyl)cyclobutyl)phenyl)-2-oxopipendin-3-yl)-3-(6-(trifluoromethyl)pyridin-3-yl)urea]
Human FPR2 receptors; [1]
  EC50: 1.2 µM
Human FPR1 receptors
  EC50: 1.1 µM

## O=C(Nc1ccc(C(F)(F)F)cn1)N[C@@H]1CCCN(c2ccc(C3(CN4CCOCC4)CCC3)cc2)C1=O [Example 63, (R)-1-(1-(4-(1-(morpholinomethyl)cyclobutyl)phenyl)-2-oxopiperidin-3-yl)-3-(5-(trifluoromethyl)pyridin-2-yl)urea]
Human FPR2 receptors; [2]
  EC50: 0.01 to 0.1 µM

## O=C(Nc1ccc(C(F)(F)F)nc1)N[C@@H]1CCCN(c2ccc(C3(CN4CCOCC4)CC3)cc2)C1=O [Example 64, (R)-1-(1-(4-(1-(morpholinomethyl)cyclopropyl)phenyl)-2-oxopiperidin-3-yl)-3-(6-(trifluoromethyl)pyridin-3-yl)urea]
Human FPR2 receptors; [2]
  EC50: 0.01 to 0.1 µM

## O=C(Nc1ccc(C(F)(F)F)cn1)N[C@@H]1CCCN(c2ccc(C3(CN4CCOCC4)CCCC3)cc2)C1=O [Example 65, (R)-1-(1-(4-(1-(morpholinomethyl)cyclopentyl)phenyl)-2-oxopiperidin-3-yl)-3-(5-(trifluoromethyl)pyridin-2-yl)urea]
Human FPR2 receptors; [2]
  EC50: 0.1 to 1.25 µM

## O=C(Nc1ccc(C(F)(F)F)nc1)N[C@@H]1CCCN(c2ccc(C3(CN4CCCC4)CC3)cc2)C1=O [Example 66, (R)-1-(2-oxo-1-(4-(1-(pyrrolidin-1-ylmethyl)cyclopropyl)phenyl)piperidin-3-yl)-3-(6-(trifluoromethyl)pyridin-3-yl)urea]
Human FPR2 receptors; [2]
  EC50: 0.1 to 1.25 µM

## CN(C)CC1(c2ccc(N3CCC[C@@H](NC(=O)Nc4ccc(C(F)(F)F)nc4)C3=O)cc2)CC1 [Example 67, (R)-1-(1-(4-(1-((dimethylamino)methyl)cyclopropyl)phenyl)-2-oxopiperidin-3-yl)-3-(6-(trifluoromethyl)pyridin-3-yl)urea]
Human FPR2 receptors; [2]
  EC50: 0.1 to 1.25 µM

## CS(=O)(=O)NCC1(c2ccc(N3C[C@H](O)C[C@@H](NC(=O)Nc4ncc(C(F)(F)F)cc4F)C3=O)cc2)CC1 [Example 68, N-((1-(4-((3R,5R)-3-(3-(3-Fluoro-5-(trifluoromethyl)pyridin-2-yl)ureido)-5-hydroxy-2-oxopiperidin-1-yl)phenyl)cyclopropyl)methyl)methanesulfonamide]
Human FPR2 receptors; [2]
  EC50: 0.01 to 0.1 µM

## CS(=O)(=O)NCC1(c2ccc(N3C[C@@H](O)C[C@H](NC(=O)Nc4ncc(C(F)(F)F)cc4F)C3=O)cc2)CC1 [Example 69, N-((1-(4-((3S,5S)-3-(3-(3-fluoro-5-(trifluoromethyl)pyridin-2-yl)ureido)-5-hydroxy-2-oxopiperidin-1-yl)phenyl)cyclopropyl)methyl)methanesulfonamide]
Human FPR2 receptors; [1]
  EC50: 0.019 µM
Human FPR1 receptors
  EC50: 0.66 µM

## CS(=O)(=O)NCC1(c2ccc(N3C[C@H](O)C[C@@H](NC(=O)Nc4ncc(Cl)cc4F)C3=O)cc2)CC1 [Example 70]
Human FPR2 receptors; [2]
  EC50: 0.01 to 0.1 µM

## CS(=O)(=O)NCC1(c2ccc(N3C[C@@H](O)C[C@@H](NC(=O)Nc4ncc(Cl)cc4F)C3=O)cc2)CC1 [Example 71]
Human FPR2 receptors; [1]
  EC50: 0.017 µM
Human FPR1 receptors
  EC50: 2.1 µM

## CC(=O)NC(C)C1(c2ccc(N3CCC[C@@H](NC(=O)Nc4ccc(C(F)(F)F)nc4)C3=O)cc2)CC1 (some centres unmarked) [Example 73]
Human FPR2 receptors; [1]
  EC50: 83 µM
Human FPR1 receptors
  EC50: 330 µM

## O=C(Nc1ccc(Cl)cc1F)N[C@@H]1CCCN(c2ccc(C3CCC(O)C3)cc2)C1=O (stereo partly drawn) [Example 77, 1-(4-Chloro-2-fluorophenyl)-3-((3R)-1-(4-(3-hydroxycyclopentyl)phenyl)-2-oxopiperidin-3-yl)urea]
Human FPR2 receptors; [1]
  EC50: 3.2 µM
Human FPR1 receptors
  EC50: 3.6 µM
